# ChEMBL document CHEMBL1201862, “PubChem BioAssay data set” (2004)
# “And” between values parts separate entries of the source, which are not always exact repeats. Equal values may be shown once.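 Values below derive from 48-hour exposures of cells grown in 96-well plates, with endpoints linearly interpolated between the two concentrations bracketing the appropriate inhibition level. Here, GI50 denotes the concentration required for 50% inhibition of growth.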 The source made the active and inactive calls. No stated cut-off is given here; in the data, active = GI50 up to about 1.1 µM and inactive = higher.
# Assays:
# Test in all cases: NCI anticancer screen, dose series, 48 h
# A498 = system: A498
# PC-3 = system: PC-3
# KM12 = system: KM12
# TK-10 = system: TK-10
# OVCAR-3 = system: OVCAR-3
# EKVX = system: EKVX
# COLO 205 = system: COLO 205
# T47D = system: T47D
# SR = system: SR
# HL-60 = system: HL-60
# IGROV-1 = system: IGROV-1
# HOP-92 = system: HOP-92
# DLD-1 = system: DLD-1
# SK-MEL-2 = system: SK-MEL-2
# OVCAR-5 = system: OVCAR-5
# DMS-273 = system: DMS-273
# MDA-MB-231 = system: MDA-MB-231
# LOX IMVI = system: LOX IMVI
# 786-0 = system: 786-0
# BT-549 = system: BT-549
# MOLT-4 = system: MOLT-4
# NCI-H226 = system: NCI-H226
# RXF 393 = system: RXF 393
# MDA-MB-435 = system: MDA-MB-435
# SF-539 = system: SF-539
# KM-20L2 = system: KM-20L2
# CCRF-CEM = system: CCRF-CEM
# Malme-3M = system: Malme-3M
# SK-OV-3 = system: SK-OV-3
# SNB-78 = system: SNB-78
# XF498 = system: XF498
# UACC-257 = system: UACC-257
# Hs-578T = system: Hs-578T
# DU-145 = system: DU-145
# HOP-18 = system: HOP-18
# HCT-15 = system: HCT-15
# SNB-19 = system: SNB-19
# HCT-116 = system: HCT-116
# HT-29 = system: HT-29
# MCF7 = system: MCF7
# RPMI-8226 = system: RPMI-8226
# U-251 = system: U-251
# A549 = system: A549
# SN12C = system: SN12C
# HCC 2998 = system: HCC 2998
# HOP-62 = system: HOP-62
# CAKI-1 = system: CAKI-1
# SF-295 = system: SF-295
# SNB-75 = system: SNB-75
# NCI-H460 = system: NCI-H460
# SK-MEL-5 = system: SK-MEL-5
# UO-31 = system: UO-31
# SF-268 = system: SF-268
# NCI-H522 = system: NCI-H522
# UACC-62 = system: UACC-62
# NCI-H23 = system: NCI-H23
# SK-MEL-28 = system: SK-MEL-28
# DMS-114 = system: DMS-114
# K562 = system: K562
# SW-620 = system: SW-620
# M19-MEL = system: M19-MEL
# OVCAR-4 = system: OVCAR-4
# NCI/ADR-RES = system: NCI/ADR-RES
# OVCAR-8 = system: OVCAR-8
smiles,measurement,setting,value
N#Cc1cn(C2OC(CO)C(O)C2O)c2ncnc(N)c12 (stereo not drawn),GI50,A498,57.4 nM (active) and 114 nM (active)
same,GI50,PC-3,0.015 µM (active)
same,GI50,KM12,24.1 nM (active) and 44.4 nM (active)
same,GI50,TK-10,0.014 µM (active)
same,GI50,OVCAR-3,25.4 nM (active) and 45 nM (active)
same,GI50,EKVX,60.3 nM (active) and 94.8 nM (active)
same,GI50,COLO 205,14.6 nM (active) and < 16.4 nM (active)
same,GI50,T47D,0.0199 µM (active)
same,GI50,SR,< 0.01 µM (active)
same,GI50,HL-60,< 10 nM (active) and < 13.8 nM (active)
same,GI50,IGROV-1,47.1 nM (active) and 23.8 nM (active)
same,GI50,HOP-92,46.2 nM (active) and 76.6 nM (active)
same,GI50,DLD-1,0.045 µM (active)
same,GI50,SK-MEL-2,18.2 nM (active) and 29.6 nM (active)
same,GI50,OVCAR-5,112 nM (active) and 81.7 nM (active)
same,GI50,DMS-273,0.0409 µM (active)
same,GI50,MDA-MB-231,0.0158 µM (active)
same,GI50,LOX IMVI,14.7 nM (active) and 24.9 nM (active)
same,GI50,786-0,0.0241 µM (active)
same,GI50,BT-549,0.0577 µM (active)
same,GI50,MOLT-4,23.9 nM (active) and 25.3 nM (active)
same,GI50,NCI-H226,66.4 nM (active) and 66.2 nM (active)
same,GI50,RXF 393,23.2 nM (active) and 21.7 nM (active)
same,GI50,MDA-MB-435,< 0.0169 µM (active)
same,GI50,SF-539,45.4 nM (active) and 76.4 nM (active)
same,GI50,KM-20L2,0.0476 µM (active)
same,GI50,CCRF-CEM,16.1 nM (active) and 18 nM (active)
same,GI50,Malme-3M,39.9 nM (active) and 47.5 nM (active)
same,GI50,SK-OV-3,26 nM (active) and 42.9 nM (active)
same,GI50,SNB-78,0.191 µM (active)
same,GI50,XF498,0.00414 µM (active)
same,GI50,UACC-257,62.2 nM (active) and 81.8 nM (active)
same,GI50,Hs-578T,0.0302 µM (active)
same,GI50,DU-145,0.0393 µM (active)
same,GI50,HOP-18,0.109 µM (active)
CC1=C(C)C(=O)O[C@@H]([C@](C)(O)[C@]2(O)CC[C@@]3(O)[C@@H]4C[C@H]5O[C@]56[C@@H](O)C=CC(=O)[C@]6(C)[C@H]4CC[C@]23C)C1,GI50,HCT-15,0.137 µM
same,GI50,SNB-19,2.17 µM (inactive)
same,GI50,HCT-116,0.182 µM (active)
same,GI50,HT-29,0.174 µM (active)
same,GI50,MCF7,0.186 µM (active)
same,GI50,IGROV-1,1.01 µM (active)
same,GI50,HOP-92,37.3 nM (active)
same,GI50,SK-MEL-2,451 nM (active)
same,GI50,RPMI-8226,0.0959 µM (active)
same,GI50,U-251,1.88 µM (inactive)
same,GI50,A549,4.01 µM (inactive)
same,GI50,SN12C,1.04 µM (active)
same,GI50,HCC 2998,1.71 µM (inactive)
same,GI50,LOX IMVI,133 nM (active)
same,GI50,HOP-62,1.11 µM (active)
same,GI50,CAKI-1,0.025 µM (active)
same,GI50,SF-295,2.99 µM (inactive)
same,GI50,SNB-75,0.0468 µM (active)
same,GI50,NCI-H226,11 µM (inactive)
same,GI50,SF-539,774 nM (active)
same,GI50,CCRF-CEM,85.1 nM (active)
same,GI50,NCI-H460,1.6 µM (inactive)
same,GI50,Malme-3M,330 nM (active)
same,GI50,SK-OV-3,6.4 µM (inactive)
same,GI50,SNB-78,0.499 µM (active)
same,GI50,XF498,0.0912 µM (active)
same,GI50,UACC-257,308 nM (active)
same,GI50,SK-MEL-5,0.414 µM (active)
same,GI50,HOP-18,0.0454 µM (active)
same,GI50,UO-31,0.587 µM (active)
O=NN(CCCl)C(=O)N[C@H]1CC[C@H](C(=O)O)CC1,GI50,A498,> 100 µM (inactive)
same,GI50,SF-268,29.7 µM (inactive)
same,GI50,NCI-H522,38.6 µM (inactive)
same,GI50,HCT-15,> 100 µM
same,GI50,UACC-62,20.2 µM (inactive)
same,GI50,NCI-H23,> 100 µM (inactive)
same,GI50,SNB-19,> 61.1 µM (inactive)
same,GI50,KM12,> 100 µM (inactive)
same,GI50,HCT-116,> 100 µM (inactive)
same,GI50,OVCAR-3,> 100 µM (inactive)
same,GI50,EKVX,> 100 µM (inactive)
same,GI50,HT-29,> 100 µM (inactive)
same,GI50,SK-MEL-28,> 100 µM (inactive)
same,GI50,COLO 205,> 100 µM (inactive)
same,GI50,DMS-114,22.8 µM (inactive)
same,GI50,MCF7,> 100 µM (inactive)
same,GI50,IGROV-1,> 100 µM (inactive)
same,GI50,HOP-92,> 100000 nM (inactive)
same,GI50,DLD-1,> 100 µM (inactive)
same,GI50,SK-MEL-2,> 100000 nM (inactive)
same,GI50,RPMI-8226,> 66.8 µM (inactive)
same,GI50,U-251,35.8 µM (inactive)
same,GI50,A549,> 100 µM (inactive)
same,GI50,OVCAR-5,> 100 µM (inactive)
same,GI50,DMS-273,> 100 µM (inactive)
same,GI50,SN12C,> 100 µM (inactive)
same,GI50,HCC 2998,> 100 µM (inactive)
same,GI50,LOX IMVI,> 72600 nM (inactive)
same,GI50,HOP-62,95.5 µM (inactive)
same,GI50,K562,> 100 µM (inactive)
same,GI50,CAKI-1,> 100 µM (inactive)
same,GI50,SF-295,34.8 µM (inactive)
same,GI50,SNB-75,> 80.2 µM (inactive)
same,GI50,SW-620,> 61.1 µM (inactive)
same,GI50,M19-MEL,> 100 µM (inactive)
same,GI50,OVCAR-4,> 100 µM (inactive)
same,GI50,MOLT-4,5.32 µM (inactive)
same,GI50,NCI-H226,> 100 µM (inactive)
same,GI50,RXF 393,> 100 µM (inactive)
same,GI50,NCI/ADR-RES,> 100 µM (inactive)
same,GI50,SF-539,36100 nM (inactive)
same,GI50,KM-20L2,> 100 µM (inactive)
same,GI50,CCRF-CEM,36300 nM (inactive)
same,GI50,NCI-H460,44.6 µM (inactive)
same,GI50,Malme-3M,94800 nM (inactive)
same,GI50,SK-OV-3,> 100 µM (inactive)
same,GI50,SNB-78,> 100 µM (inactive)
same,GI50,XF498,> 100 µM (inactive)
same,GI50,OVCAR-8,> 100 µM (inactive)
same,GI50,UACC-257,> 100000 nM (inactive)
same,GI50,SK-MEL-5,> 31.6 µM (inactive)
same,GI50,HOP-18,> 100 µM (inactive)
same,GI50,UO-31,> 100 µM (inactive)
